How the values were obtained:
Plasmopara viticola = test: foliar fungal disease control on plants, Plasmopara viticola on vine; type: in vivo; conditions: 100 ppm foliar spray plus root drench ca. 40 ppm a.i./dry soil, one or two days before inoculation
Method: (§1) The technique employed was as follows.
(§2) The plants were grown in John Innes Potting Compost (No. 1 or 2) in 4 cm diameter minipots. The test compounds were formulated either by bead milling with aqueous Dispersol T or as a solution in acetone or acetone/ethanol which was diluted to the required concentration immediately before use. For the foliage diseases, the formulations (100 ppm active ingredient) were sprayed on to the foliage and applied to the roots of the plants in the soil. The sprays were applied to maximum retention and the root drenches to a final concentration equivalent to approximately 40 ppm a.i./dry soil. Tween 20, to give a final concentration of 0.05%, was added when the sprays were applied to cereals.
(§3) For most of the tests the compound was applied to the soil (roots) and to the foliage (by spraying) one or two days before the plant was inoculated with the disease. An exception was the test on Erysiphe graminis in which the plants were inoculated 24 hours before treatment. Foliar pathogens were applied by spray as spore suspensions onto the leaves of test plants. After inoculation, the plants were put into an appropriate environment to allow infection to proceed and then incubated until the disease was ready for assessment. The period between inoculation and assessment varied from four to fourteen days according to the disease and environment.
(§4) The disease control was recorded by the following grading: […]

Erysiphe graminis = test: foliar fungal disease control on plants, Erysiphe graminis on barley; type: in vivo; conditions: 100 ppm foliar spray plus root drench ca. 40 ppm a.i./dry soil; inoculated 24 hours before treatment
Method: as §1, §2, §3, §4

Phytophthora infestans = type: in vivo; conditions: 100 ppm foliar spray plus root drench ca. 40 ppm a.i./dry soil, one or two days before inoculation
Puccinia recondita = test: foliar fungal disease control on plants, Puccinia recondita on wheat; type: in vivo; conditions: 100 ppm foliar spray plus root drench ca. 40 ppm a.i./dry soil, one or two days before inoculation
Method: as §1, §2, §3, §4

Venturia inaequalis = test: foliar fungal disease control on plants, Venturia inaequalis on apple; type: in vivo; conditions: 100 ppm foliar spray plus root drench ca. 40 ppm a.i./dry soil, one or two days before inoculation
Method: as §1, §2, §3, §4

Pyricularia oryzae = type: in vivo; conditions: 100 ppm foliar spray plus root drench ca. 40 ppm a.i./dry soil, one or two days before inoculation
Cercospora arachidicola = test: foliar fungal disease control on plants, Cercospora arachidicola on peanut; type: in vivo; conditions: 100 ppm foliar spray plus root drench ca. 40 ppm a.i./dry soil, one or two days before inoculation
Method: as §1, §2, §3, §4

[1] = test system: Tetranychus urticae (spider mites - adult); test: whole plant or invertebrate; conditions: in Phaseolus vulgaris, 72 h, read-out: grading of mortality, TUa
Diabrotica balteata = test: whole plant or invertebrate; conditions: in Zea mays, 72 h, read-out: grading of mortality, DB
Heliothis virescens = test: insecticidal test, tobacco budworm - larvae; type: in vivo; conditions: in Gossypium hirsutum, 72 h, read-out: grading of mortality, HV
Method: (§5) The activity of the compounds was determined using a variety of insect, mite and nematode pests. The compounds were used in the form of liquid preparations containing 500 parts per million (ppm) by weight of the compound except for the test on Meloidogyne incognita when liquid preparations of 250 ppm by weight were used. The preparations were made by dissolving the compounds in acetone and diluting the solutions with water containing 0.1% by weight of a wetting agent sold under the trade name "SYNPERONIC" NX until the liquid preparations contained the required concentration of the product. "SYNPERONIC" is a Registered Trade Mark.
(§6) The test procedure adopted with regard to each pest was basically the same and comprised supporting a number of the pests on a medium which was usually a host plant or a foodstuff on which the pests feed, and treating either or both the pests and the medium with the preparations. The mortality of the pests was then assessed at periods usually varying from one to seven days after the treatment.
(§7) The results of the tests are given in Table IX for each of the products as a grading of mortality designated as 9, 5 or 0 where 9 indicates 80-100% mortality (70-100% root-knot reduction as compared with untreated plants for Meloidogyne incognita), 5 indicates 50-79% mortality (50-69% root knot reduction for Meloidogyne incognita) and 0 indicates less than 50% mortality (root-knot reduction for Meloidogyne incognita).
(§8) In Table IX the pest organism used in designated by a letter code and the pests species, the support medium or food, and the type and duration of test is given in Table VII.

Meloidogyne incognita = test: nematode test, tomato root knot eelworm - larvae, semi in-vitro; type: in vivo; conditions: 250 ppm, residual, 7 days
Method: as §5, §6, §7, §8

Blattella germanica = test: whole plant or invertebrate; conditions: 72 h, read-out: grading of mortality, BG
Nilaparvata lugens = test: whole plant or invertebrate; conditions: in Oryza sativa, 72 h, read-out: grading of mortality, NL
[2] = test system: Tetranyhus urticae (spider mites - ova); test: whole plant or invertebrate; conditions: 144 h, read-out: grading of mortality, TUe
Myzus persicae = test: whole plant or invertebrate; conditions: in Brassica rapa, 72 h, read-out: grading of mortality, MP
Musca domestica [3] = test: whole plant or invertebrate; conditions: 24 h, read-out: grading of mortality, MD
Spodoptera exigua = test: whole plant or invertebrate; conditions: in Gossypium hirsutum, 72 h, read-out: grading of mortality, SP
Musca domestica [4] = test: knockdown properties against houseflies; type: in vivo; conditions: 2000 ppm solution (1 ml) sprayed directly
Method: A sample of compound 3 was diluted in 2 mls acetone and made upto a 2000 ppm solution with 0.1% aqueous synperonic solution. The solution (1 ml) was then sprayed directly onto twenty mixed sex houseflies held in a drinking cup. Immediately after spraying the cups were inverted and left to dry. An assessment of knockdown was made when the cups were righted 15 minutes later. The flies were then provided with a 10% sucrose solution on a cotton wool pad, and held for 48 hours in a holding room conditioned at 25° C. and 65% relative humidity before a mortality assessment was made.

Compound | disease control grading, […] (Vine) (Plasmopara viticola) | disease control grading, ERYSIPHE GRAMINIS (Barley) (Erysiphe graminis) | disease control grading, PH[…] (TOMATOES) (Phytophthora infestans) | disease control grading, PUCCINIA RECONDITA (Wheat) (Puccinia recondita) | disease control grading, VENTURIA INAEQUALIS (Apple) (Venturia inaequalis) | disease control grading, P[…] (Rice) (Pyricularia oryzae) | disease control grading, CERCOSPCRA ARACHIDICOLA (Peanut) (Cercospora arachidicola) | mortality at 500 ppm [1] [%] | mortality at 500 ppm (Diabrotica balteata) [%] | mortality at 500 ppm (Heliothis virescens) [%] | grading of root-knot reduction, MI (Meloidogyne incognita) | mortality at 500 ppm (Blattella germanica) [%] | mortality at 500 ppm (Nilaparvata lugens) [%] | mortality at 500 ppm [2] [%] | mortality at 500 ppm (Myzus persicae) [%] | mortality at 500 ppm (Musca domestica [3]) [%] | mortality at 500 ppm (Spodoptera exigua) [%] | knockdown (Musca domestica [4]; 15 minutes) [%] | kill (Musca domestica [4]; 48 hours, 25° C., 65% relative humidity) [%]
CCOC(=O)/C=C/c1cccn1/C(=C\OC)C(=O)OC [(Z)-methyl 3-methoxy-2-[2-(E-2-carbethoxyethenyl)pyrrol-1-yl]acrylate] | 4 | 0 (60-100% of disease on untreated plants) | 4 | 4 | 4 | 4 | 4 |  |  |  |  |  |  |  |  |  |  |  | 
CO/C=C(/C(=O)OC)n1cccc1/C=N/OC [Compound 1 of Table I] | 4 | 4 | 3 (trace - 5% of disease on untreated plants) | 4 | 4 | 4 | 4 |  |  |  |  |  |  |  |  |  |  |  | 
CO/C=C(/C(=O)OC)n1cccc1/C=N\OC [Compound 2 of Table I] | 4 | 4 | 0 (60-100% of disease on untreated plants) | 4 | 4 | 3 (trace - 5% of disease on untreated plants) | 4 | 80 to 100 | 50 to 79 | < 50 | 0 (less than 50% mortality (root-knot reduction for Meloidogyne incognita)) | < 50 | < 50 | < 50 | 80 to 100 | < 50 | < 50 |  | 
C=CCO/N=C/c1cccn1/C(=C\OC)C(=O)OC [Compound 3 of Table I] | 4 | 4 | 0 (60-100% of disease on untreated plants) | 4 | 4 |  | 4 | 80 to 100 | 80 to 100 | < 50 | 5 (50-69% root knot reduction for Meloidogyne incognita) | 80 to 100 | 80 to 100 | < 50 | < 50 | 80 to 100 | < 50 | 90 | 93
C=CCO/N=C\c1cccn1/C(=C\OC)C(=O)OC [Compound 4 of Table I] | 4 | 4 | 4 | 4 | 4 | 4 | 4 |  |  |  |  |  |  |  |  |  |  |  | 
CO/C=C(/C(=O)OC)n1cccc1CN1CCOCC1 [Compound 5 of Table II] | 0 (60-100% of disease on untreated plants) | 2 (6-25% of disease on untreated plants) | 0 (60-100% of disease on untreated plants) | 2 (6-25% of disease on untreated plants) | 4 | 0 (60-100% of disease on untreated plants) | 4 |  |  |  |  |  |  |  |  |  |  |  | 
CO/C=C(/C(=O)OC)n1cccc1/C=N/OCc1ccccc1 [Compound 5 of Table I] | 4 | 3 (trace - 5% of disease on untreated plants) | 0 (60-100% of disease on untreated plants) | 3 (trace - 5% of disease on untreated plants) | 4 | 4 | 3 (trace - 5% of disease on untreated plants) |  |  |  |  |  |  |  |  |  |  |  | 
C#CCO/N=C/c1cccn1/C(=C\OC)C(=O)OC [Compound 7 of Table I] | 4 | 4 | 3 (trace - 5% of disease on untreated plants) | 4 | 4 | 4 | 4 | 80 to 100 | 80 to 100 |  | 0 (less than 50% mortality (root-knot reduction for Meloidogyne incognita)) | 50 to 79 | < 50 | < 50 | < 50 | < 50 |  |  | 
CCOC(=O)/C(C#N)=C/c1cccn1/C(=C\OC)C(=O)OC [Compound 19 of Table I] | 4 | 0 (60-100% of disease on untreated plants) | 0 (60-100% of disease on untreated plants) | 4 | 0 (60-100% of disease on untreated plants) | 0 (60-100% of disease on untreated plants) | 3 (trace - 5% of disease on untreated plants) |  |  |  |  |  |  |  |  |  |  |  | 
